System: 766 cancer cell lines
Test: Large-scale cell-line viability measurements (766 cancer cell lines, 72 h, AUC)
Format: cell-based, human
Protocol: Cell lines were treated for 72 hours with concentrations ranging from 66.4 μM-2 nM in 2-fold step dilutions.
To characterize cellular sensitivity to DNMDP further, 766 genomically characterized cancer cell lines were screened for DMNDP sensitivity at concentrations ranging from 66.4 μM to 2 nM in 2-fold dilution steps for 72 hours. From these cell lines, 22 cell lines were categorized as sensitive with a robust Z-score lower than −4, which represented multiple lineages including multiple melanoma cell lines, amongst others (Table 1).
The sensitivity of […] cancer cell lines (CCLs) was measured drawn from 23 different lineages to DNMDP. Each cell line was plated in its preferred media in white opaque 1536-plates at a density of 500 cells/well. After incubating overnight, DNMDP was added by acoustic transfer at 16 concentrations ranging from 66.4 μM-2 nM in 2-fold steps in duplicate (Labcyte Echo 555, Labcyte Inc., Sunnyvale, Calif.). After 72 hours treatment, cellular ATP levels were measured as a surrogate for viability (CELLTITERGLO®, Promega Corporation, Madison, Wis.) according to manufacturer's protocols using a ViewLux Microplate Imager (PerkinElmer, Waltham, Mass.) and normalized to background (media-only) and vehicle (DMSO)-treated control wells.
Concentration response curves were fit using nonlinear fits to 2- or 3-parameter sigmoid functions through all 16 concentrations with the low-concentration asymptote set to the DMSO-normalized value, and an optimal 8-point dose curve spanning the range of compound-sensitivity was identified. The area under the 8-point dose curve (AUC) was computed by numeric integration as a metric for sensitivity for further analysis. Similar sensitivity measurements have been obtained for a collection of 480 other compounds, enabling analyses that identify cell lines responding uniquely to DNMDP (see Broad Institute Cancer Therapeutics Response Portal, a dataset to identify comprehensively relationships between genetic and lineage features of human cancer cell lines and small-molecule sensitivities for complete list of compounds).

[1] = ALLSIL (HAEMATOPOIETIC AND LYMPHOID TISSUE), 72 hours
[2] = BICR6 (UPPER AERODIGESTIVE TRACT), 72 hours
[3] = DKMG (CENTRAL NERVOUS SYSTEM), 72 hours
[4] = DND41 (HAEMATOPOIETIC AND LYMPHOID TISSUE), 72 hours
[5] = EJM (HAEMATOPOIETIC AND LYMPHOID TISSUE), 72 hours
[6] = GB1 (CENTRAL NERVOUS SYSTEM), 72 hours
[7] = GOS3 (CENTRAL NERVOUS SYSTEM), 72 hours
[8] = GRANTA519 (HAEMATOPOIETIC AND LYMPHOID TISSUE), 72 hours
[9] = HEL9217 (HAEMATOPOIETIC AND LYMPHOID TISSUE), 72 hours
[10] = HUT78 (HAEMATOPOIETIC AND LYMPHOID TISSUE), 72 hours
[11] = KCL22 (HAEMATOPOIETIC AND LYMPHOID TISSUE), 72 hours
[12] = KMM1 (HAEMATOPOIETIC AND LYMPHOID TISSUE), 72 hours
[13] = KMS11 (HAEMATOPOIETIC AND LYMPHOID TISSUE), 72 hours
[14] = KMS12BM (HAEMATOPOIETIC AND LYMPHOID TISSUE), 72 hours
[15] = KMS20 (HAEMATOPOIETIC AND LYMPHOID TISSUE), 72 hours
[16] = KMS28BM (HAEMATOPOIETIC AND LYMPHOID TISSUE), 72 hours
[17] = KMS34 (HAEMATOPOIETIC AND LYMPHOID TISSUE), 72 hours
[18] = KO52 (HAEMATOPOIETIC AND LYMPHOID TISSUE), 72 hours
[19] = L540 (HAEMATOPOIETIC AND LYMPHOID TISSUE), 72 hours
[20] = L1236 (HAEMATOPOIETIC AND LYMPHOID TISSUE), 72 hours
[21] = LAMA84 (HAEMATOPOIETIC AND LYMPHOID TISSUE), 72 hours
[22] = LNCAPCLONEFGC (PROSTATE), 72 hours
[23] = LP1 (HAEMATOPOIETIC AND LYMPHOID TISSUE), 72 hours

CCN(CC)c1ccc(C2=NNC(=O)CC2C)cc1[N+](=O)[O-] (centres unmarked) [DNMDP, 6-(4-(diethylamino)-3-nitrophenyl)-5-methyl-4,5-dihydropyridazin-3(2H)-one]
number of cell lines categorized as sensitive (robust Z-score lower than −4) (766 cell lines, 66.4 μM to 2 nM, 72 hours): 22 cell lines | share of cell lines with nanomolar efficacy (766 genomically-characterized cancer cell lines): about 3% | DNMDP AUC (A549 (LUNG), 72 hours): 5.9509 | Robust Z-score (A549 (LUNG), 72 hours): −0.7177 | DNMDP AUC [1]: 5.8724 | Robust Z-score [1]: −0.8001 | DNMDP AUC [2]: 5.8837 | Robust Z-score [2]: −0.7882 | DNMDP AUC (BT549 (BREAST), 72 hours): 5.9226 | Robust Z-score (BT549 (BREAST), 72 hours): −0.7474 | DNMDP AUC (C32 (SKIN), 72 hours): 6.1786 | Robust Z-score (C32 (SKIN), 72 hours): −0.4787 | DNMDP AUC (CAL54 (KIDNEY), 72 hours): 6.1949 | Robust Z-score (CAL54 (KIDNEY), 72 hours): −0.4616 | DNMDP AUC (COLO668 (LUNG), 72 hours): 5.9969 | Robust Z-score (COLO668 (LUNG), 72 hours): −0.6694 | DNMDP AUC (COLO679 (SKIN), 72 hours): 5.9634 | Robust Z-score (COLO679 (SKIN), 72 hours): −0.7046 | DNMDP AUC (COLO800 (SKIN), 72 hours): 6.1272 | Robust Z-score (COLO800 (SKIN), 72 hours): −0.5326 | DNMDP AUC (CORL51 (LUNG), 72 hours): 0.5944 | Robust Z-score (CORL51 (LUNG), 72 hours): −6.34 | DNMDP AUC (COV362 (OVARY), 72 hours): 5.6913 | Robust Z-score (COV362 (OVARY), 72 hours): −0.9902 | DNMDP AUC [3]: 1.7217 | Robust Z-score [3]: −5.157 | DNMDP AUC (DMS53 (LUNG), 72 hours): 6.2061 | Robust Z-score (DMS53 (LUNG), 72 hours): −0.4498 | DNMDP AUC [4]: 6.1979 | Robust Z-score [4]: −0.4584 | DNMDP AUC (DU145 (PROSTATE), 72 hours): 5.7825 | Robust Z-score (DU145 (PROSTATE), 72 hours): −0.8945 | DNMDP AUC (DV90 (LUNG), 72 hours): 6.1676 | Robust Z-score (DV90 (LUNG), 72 hours): −0.4902 | DNMDP AUC (ECGI10 (OESOPHAGUS), 72 hours): 6.2151 | Robust Z-score (ECGI10 (OESOPHAGUS), 72 hours): −0.4404 | DNMDP AUC [5]: 6.1782 | Robust Z-score [5]: −0.4791 | DNMDP AUC (EPLC272H (LUNG), 72 hours): 6.0469 | Robust Z-score (EPLC272H (LUNG), 72 hours): −0.6169 | DNMDP AUC (G402 (SOFT TISSUE), 72 hours): 6.0606 | Robust Z-score (G402 (SOFT TISSUE), 72 hours): −0.6026 | DNMDP AUC [6]: 1.8269 | Robust Z-score [6]: −5.046 | DNMDP AUC [7]: 6.2076 | Robust Z-score [7]: −0.4483 | DNMDP AUC [8]: 5.8937 | Robust Z-score [8]: −0.7777 | DNMDP AUC (GSU (STOMACH), 72 hours): 6.1172 | Robust Z-score (GSU (STOMACH), 72 hours): −0.5431 | DNMDP AUC (HCC1395 (BREAST), 72 hours): 5.9716 | Robust Z-score (HCC1395 (BREAST), 72 hours): −0.696 | DNMDP AUC (HCC1419 (BREAST), 72 hours): 5.7835 | Robust Z-score (HCC1419 (BREAST), 72 hours): −0.8934 | DNMDP AUC (HCC1428 (BREAST), 72 hours): 5.9402 | Robust Z-score (HCC1428 (BREAST), 72 hours): −0.7289 | DNMDP AUC (HCC1500 (BREAST), 72 hours): 5.9451 | Robust Z-score (HCC1500 (BREAST), 72 hours): −0.7238 | DNMDP AUC [9]: 0.75 | Robust Z-score [9]: −6.177 | DNMDP AUC (HS888T (BONE), 72 hours): 5.8353 | Robust Z-score (HS888T (BONE), 72 hours): −0.839 | DNMDP AUC [10]: 1.5307 | Robust Z-score [10]: −5.357 | DNMDP AUC (IALM (LUNG), 72 hours): 5.775 | Robust Z-score (IALM (LUNG), 72 hours): −0.9023 | DNMDP AUC (JHH4 (LIVER), 72 hours): 5.71 | Robust Z-score (JHH4 (LIVER), 72 hours): −0.9706 | DNMDP AUC [11]: 5.9598 | Robust Z-score [11]: −0.7084 | DNMDP AUC [12]: 6.1723 | Robust Z-score [12]: −0.4853 | DNMDP AUC [13]: 6.2008 | Robust Z-score [13]: −0.4554 | DNMDP AUC [14]: 6.0135 | Robust Z-score [14]: −0.652 | DNMDP AUC [15]: 6.0542 | Robust Z-score [15]: −0.6093 | DNMDP AUC [16]: 5.9369 | Robust Z-score [16]: −0.7324 | DNMDP AUC [17]: 5.8799 | Robust Z-score [17]: −0.7922 | DNMDP AUC [18]: 6.2174 | Robust Z-score [18]: −0.438 | DNMDP AUC (KYSE410 (OESOPHAGUS), 72 hours): 6.0741 | Robust Z-score (KYSE410 (OESOPHAGUS), 72 hours): −0.5884 | DNMDP AUC [19]: 6.0807 | Robust Z-score [19]: −0.5815 | DNMDP AUC [20]: 6.0853 | Robust Z-score [20]: −0.5766 | DNMDP AUC [21]: 5.8201 | Robust Z-score [21]: −0.855 | DNMDP AUC (LMSU (STOMACH), 72 hours): 6.0528 | Robust Z-score (LMSU (STOMACH), 72 hours): −0.6107 | DNMDP AUC [22]: 5.7557 | Robust Z-score [22]: −0.9226 | DNMDP AUC (LOUNH91 (LUNG), 72 hours): 5.9793 | Robust Z-score (LOUNH91 (LUNG), 72 hours): −0.6879 | DNMDP AUC [23]: 6.1029 | Robust Z-score [23]: −0.5582 | DNMDP AUC (LU99 (LUNG), 72 hours): 5.8016

From patent US11207320B2, “Compositions and methods for cancer expressing PDE3A or SLFN12” (The Broad Institute, Inc., priority 2015, dated 2021)
